In patent US20240327393A1 (SIRONAX LTD., priority 2021, published 2024):

system: HT-1080 (ATCC, CCL-121) cells; experiment: HT-1080 cell viability assay with ferroptosis inducer RSL3 (Cell Titer-Glo); type: cell-based; conditions: Homo sapiens; HT-1080 cells treated with RSL3; 3-fold, 10-point dilution, 1.1 μM highest concentration; Table 2; read-out: EC50 (nM), ferroptosis inhibitory activity
Method in brief: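 EC50 was derived by sigmoidal dose-response regression of CellTiter-Glo luminescence viability, expressed relative to untreated wells. Compounds were tested in a ten-point, threefold dilution series (highest 1.1 μM) in the presence of the ferroptosis inducer RSL3. HT-1080 cells had been seeded at 6000 per well and grown overnight first.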

Row | SMILES | EC50
1 | CC1CN(c2ccc(Nc3cc(F)c4c(c3)OCC(=O)N4C)cc2)CC(C)O1 (stereo not shown) [Compound 87, 7-((4-(2,6-dimethylmorpholino)phenyl)amino)-5-fluoro-4-methyl-2H-benzo[b][1,4]oxazin-3(4H)-one] | 0.1 to 100 nM
2 | CN1C(=O)COc2cc(Nc3ccc(N4CC5CCC(C4)O5)c(F)c3)ccc21 [Compound 89, 7-((4-(8-oxa-3-azabicyclo[3.2.1]octan-3-yl)-3-fluorophenyl)amino)-4-methyl-2H-benzo[b][1,4]oxazin-3(4H)-one] | 0.1 to 100 nM
3 | COc1cc(N2CCC(C(F)(F)F)CC2)ccc1Nc1ccc2c(c1)OCC(=O)N2C [Compound 90, 7-((2-methoxy-4-(4-(trifluoromethyl)piperidin-1-yl)phenyl)amino)-4-methyl-2H-benzo[b][1,4]oxazin-3(4H)-one] | 0.1 to 100 nM
4 | COc1cc(Nc2ccc3c(c2)OCC(=O)N3C)ccc1N1CCC(C(F)(F)F)CC1 [Compound 91, 7-((3-methoxy-4-(4-(trifluoromethyl)piperidin-1-yl)phenyl)amino)-4-methyl-2H-benzo[b][1,4]oxazin-3(4H)-one] | 0.1 to 100 nM
5 | CC1CC(c2ccc(Nc3ccc4c(c3)OCC(=O)N4)cc2)CC(C)O1 (stereo not shown) [Compound 92, 7-((4-(2,6-dimethyltetrahydro-2H-pyran-4-yl)phenyl)amino)-2H-benzo[b][1,4]oxazin-3(4H)-one] | 0.1 to 100 nM
6 | CN1C(=O)COc2cc(Nc3ccc(N4CC(C)(C)OC(C)(C)C4)cc3)ccc21 [Compound 93, 4-methyl-7-((4-(2,2,6,6-tetramethylmorpholino)phenyl)amino)-2H-benzo[b][1,4]oxazin-3(4H)-one] | 0.1 to 100 nM
7 | CN(C)CCN1C(=O)COc2cc(Nc3ccc(N4CCC(C(F)(F)F)CC4)cc3)ccc21 [Compound 94, 4-(2-(dimethylamino)ethyl)-7-((4-(4-(trifluoromethyl)piperidin-1-yl)phenyl)amino)-2H-benzo[b][1,4]oxazin-3(4H)-one] | 0.1 to 100 nM
8 | COCCN1C(=O)COc2cc(Nc3ccc(N4CC(C)OC(C)C4)cc3)ccc21 (stereo not shown) [Compound 95, 7-((4-(2,6-dimethylmorpholino)phenyl)amino)-4-(2-methoxyethyl)-2H-benzo[b][1,4]oxazin-3(4H)-one] | 0.1 to 100 nM
9 | Cc1cc(N2CC(C)OC(C)C2)ccc1Nc1ccc2c(c1)OCC(=O)N2 (stereo not shown) [Compound 96] | 0.1 to 100 nM
10 | CN1C(=O)COc2cc(Nc3ccc(N4C[C@@H]5C[C@H]4CO5)c(F)c3)ccc21 [Compound 97, 7-((4-((1S,4S)-2-oxa-5-azabicyclo[2.2.1]heptan-5-yl)-3-fluorophenyl)amino)-4-methyl-2H-benzo[b][1,4]oxazin-3(4H)-one] | 0.1 to 100 nM
11 | CN1C(=O)COc2cc(Nc3ccc(N4CC5CCC4CO5)c(F)c3)ccc21 (stereo not shown) [Compound 98, 7-((4-(2-oxa-5-azabicyclo[2.2.2]octan-5-yl)-3-fluorophenyl)amino)-4-methyl-2H-benzo[b][1,4]oxazin-3(4H)-one] | 0.1 to 100 nM
12 | CN1C(=O)COc2cc(Nc3ccc(N4CC5CC(C4)O5)c(F)c3)ccc21 [Compound 99, 7-((4-(6-oxa-3-azabicyclo[3.1.1]heptan-3-yl)-3-fluorophenyl)amino)-4-methyl-2H-benzo[b][1,4]oxazin-3(4H)-one] | 0.1 to 100 nM
13 | Cc1cc(N2CCC(C(F)(F)F)CC2)ccc1Nc1ccc2c(c1)OCC(=O)N2 [Compound 100, 7-((2-methyl-4-(4-(trifluoromethyl)piperidin-1-yl)phenyl)amino)-2H-benzo[b][1,4]oxazin-3(4H)-one] | 0.1 to 100 nM
14 | Cc1cc(Nc2ccc3c(c2)OCC(=O)N3)ccc1N1CCC(C(F)(F)F)CC1 [Compound 101, 7-((3-methyl-4-(4-(trifluoromethyl)piperidin-1-yl)phenyl)amino)-2H-benzo[b][1,4]oxazin-3(4H)-one] | 100 to 1000 nM
15 | CC1CCN(c2ccc(Nc3ccc4c(c3)N(C)CC(=O)N4C)cc2)CC1 [Compound 102, 1,4-dimethyl-6-((4-(4-methylpiperidin-1-yl)phenyl)amino)-3,4-dihydroquinoxalin-2(1H)-one] | 0.1 to 100 nM
16 | CN1CCN(CC(=O)N2CCc3cc(Nc4ccc(N5CCCCC5)cc4)ccc3C2)CC1 [Compound 103, 2-(4-methylpiperazin-1-yl)-1-(6-((4-(piperidin-1-yl)phenyl)amino)-3,4-dihydroisoquinolin-2(1H)-yl)ethan-1-one] | 100 to 1000 nM
17 | c1ccc(Nc2ccc3c(c2)CCNC3)cc1 [Compound 104, N-phenyl-1,2,3,4-tetrahydroisoquinolin-6-amine] | 0.1 to 100 nM
18 | CCN1CCc2cc(Nc3ccccc3)ccc2C1 [Compound 105, 2-ethyl-N-phenyl-1,2,3,4-tetrahydroisoquinolin-6-amine] | 0.1 to 100 nM
19 | CC(=O)N1CCc2cc(Nc3ccccc3)ccc2C1 [Compound 106, 1-(6-(phenylamino)-3,4-dihydroisoquinolin-2(1H)-yl)ethan-1-one] | 0.1 to 100 nM
20 | CN1CCN(CC(=O)N2CCc3cc(Nc4ccccc4)ccc3C2)CC1 [Compound 107, 2-(4-methylpiperazin-1-yl)-1-(6-(phenylamino)-3,4-dihydroisoquinolin-2(1H)-yl)ethan-1-one] | 0.1 to 100 nM
21 | CN1CCN(CC(=O)N2CCc3cc(Nc4ccc(N5CCC(C(F)(F)F)CC5)c(F)c4)ccc3C2)CC1 [Compound 108, 1-(6-((3-fluoro-4-(4-(trifluoromethyl)piperidin-1-yl)phenyl)amino)-3,4-dihydroisoquinolin-2(1H)-yl)-2-(4-methylpiperazin-1-yl)ethan-1-one] | 0.1 to 100 nM
22 | Cc1cc(=O)oc2cc(Nc3ccc(C(C)(C)C)cc3)ccc12 [Compound 118, 7-((4-(tert-butyl)phenyl)amino)-4-methyl-2H-chromen-2-one] | 0.1 to 100 nM
23 | CC(C)(C)c1ccc(Nc2ccc3oc(=O)ccc3c2)cc1 [Compound 120, 6-((4-(tert-butyl)phenyl)amino)-2H-chromen-2-one] | 0.1 to 100 nM
24 | CC(C)(C)c1ccc(Nc2ccc3c(CCN)cc(=O)oc3c2)cc1 [Compound 121, 4-(2-aminoethyl)-7-((4-(tert-butyl)phenyl)amino)-2H-chromen-2-one] | 0.1 to 100 nM
25 | CC(C)(C)c1ccc(Nc2ccc3cc(CCN)c(=O)oc3c2)cc1 [Compound 124, 3-(2-aminoethyl)-7-((4-(tert-butyl)phenyl)amino)-2H-chromen-2-one] | 0.1 to 100 nM
26 | Cc1cc2c(C)cc(=O)oc2cc1Nc1ccc(N2CCC(C(F)(F)F)CC2)cc1 [Compound 126, 4,6-dimethyl-7-((4-(4-(trifluoromethyl)piperidin-1-yl)phenyl)amino)-2H-chromen-2-one] | 0.1 to 100 nM

Further lines, results first:

Row | EC50 | SMILES
27 | 0.1 to 100 nM | CN1C(=O)COc2cc(Nc3ccc(N4CCC(C(F)(F)F)CC4)cc3)cc(F)c21 [Compound 88, 5-fluoro-4-methyl-7-((4-(4-(trifluoromethyl)piperidin-1-yl)phenyl)amino)-2H-benzo[b][1,4]oxazin-3(4H)-one]
28 | 0.1 to 100 nM | CN1CC(=O)N(C)c2ccc(Nc3ccc(N4CCC(C(F)(F)F)CC4)cc3)cc21 [Compound 109, 1,4-dimethyl-6-((4-(4-(trifluoromethyl)piperidin-1-yl)phenyl)amino)-3,4-dihydroquinoxalin-2(H)-one]
29 | 0.1 to 100 nM | Cn1c(=O)c(=O)n(C)c2cc(Nc3ccc(N4CCC(C(F)(F)F)CC4)cc3)ccc21 [Compound 110, 1,4-dimethyl-6-((4-(4-(trifluoromethyl)piperidin-1-yl)phenyl)amino)-1,4-dihydroquinoxaline-2,3-dione]
30 | 0.1 to 100 nM | Cn1c(=O)cnc2cc(Nc3ccc(N4CCC(C(F)(F)F)CC4)cc3)ccc21 [Compound 111, 1-methyl-6-((4-(4-(trifluoromethyl)piperidin-1-yl)phenyl)amino) quinoxalin-2(1H)-one]
31 | 0.1 to 100 nM | CN1Cc2cc(Nc3ccc(N4CCC(C(F)(F)F)CC4)cc3)ccc2N(C)C1=O [Compound 112, 1,3-dimethyl-6-((4-(4-(trifluoromethyl)piperidin-1-yl)phenyl)amino)-3,4-dihydroquinazolin-2(1H)-one]
32 | 0.1 to 100 nM | Cc1nc(=O)n(C)c2ccc(Nc3ccc(N4CCC(C(F)(F)F)CC4)cc3)cc12 [Compound 113, 1,4-dimethyl-6-((4-(4-(trifluoromethyl)piperidin-1-yl)phenyl)amino) quinazolin-2(1H)-one]
33 | 0.1 to 100 nM | CN1CCOc2cc(Nc3ccc(N4CCC(C(F)(F)F)CC4)cc3)ccc21 [Compound 114, 4-methyl-N-(4-(4-(trifluoromethyl)piperidin-1-yl)phenyl)-3,4-dihydro-2H-benzo[b][1,4]oxazin-7-amine]
34 | 0.1 to 100 nM | CC1CCN(c2ccc(Nc3ccc4c(c3)ncc(=O)n4C)cc2)CC1 [Compound 115, 1-methyl-6-((4-(4-methylpiperidin-1-yl)phenyl)amino)quinoxalin-2(1H)-one]
35 | 0.1 to 100 nM | CCn1c(=O)cnc2cc(Nc3ccc(N4CCC(C(F)(F)F)CC4)cc3)ccc21 [Compound 116, 1-ethyl-6-((4-(4-(trifluoromethyl)piperidin-1-yl)phenyl)amino) quinoxalin-2(1H)-one]
36 | 0.1 to 100 nM | CCn1c(=O)cnc2cc(Nc3ccc(N4CCC(C)CC4)cc3)ccc21 [Compound 117]
37 | 0.1 to 100 nM | Cc1cc(=O)oc2cc(Nc3ccc(N4CCC(C(F)(F)F)CC4)cc3)ccc12 [Compound 119, 4-methyl-7-((4-(4-(trifluoromethyl)piperidin-1-yl)phenyl)amino)-2H-chromen-2-one]
38 | 0.1 to 100 nM | NCCc1cc(=O)oc2cc(Nc3ccc(N4CCC(C(F)(F)F)CC4)cc3)ccc12 [Compound 122, 4-(2-aminoethyl)-7-((4-(4-(trifluoromethyl)piperidin-1-yl)phenyl)amino)-2H-chromen-2-one]
39 | 0.1 to 100 nM | O=c1ccc2cc(Nc3ccc(N4CCC(C(F)(F)F)CC4)cc3)ccc2o1 [Compound 123, 6-((4-(4-(trifluoromethyl)piperidin-1-yl)phenyl)amino)-2H-chromen-2-one]
40 | 0.1 to 100 nM | NCCc1cc2ccc(Nc3ccc(N4CCC(C(F)(F)F)CC4)cc3)cc2oc1=O [Compound 125, 3-(2-aminoethyl)-7-((4-(4-(trifluoromethyl)piperidin-1-yl)phenyl)amino)-2H-chromen-2-one]
